Consider eight compounds from ChEMBL document CHEMBL1139698, “Potent, selective pyrimidinetrione-based inhibitors of MMP-13” (Bioorg Med Chem Lett, 2006).

As usually defined, the IC50 is the concentration at which inhibition is half-maximal. Higher therefore signals weaker potency. Broadly, the clearance is a measure of how efficiently the substance is removed, as volume per time. A word on the ED50: it is the dose that gives a 50% effect, or the effect in half of the subjects. As a reminder, the half-life is how long it takes for the measured level to halve. A lower half-life goes with fast loss.

The species entered for data set [1] is Homo sapiens. In words: Selectivity for MMP13 over MMP14.
The species entered for data set [2] is Homo sapiens. In words: Selectivity for MMP13 over MMP8.
Data set [3] can be described thus: Plasma protein binding in rat. The format is ADME, cell-free. Particulars: read-out: PPB.
Data set [4] has as its target T1, Collagenase 3 (Homo sapiens, UniProt P45452).
The nature of data set [5]: Plasma clearance in rat. The format is ADME, organism-based.
Data set [6] addresses T1, Collagenase 3. The data set can be described thus: Inhibition of MMP13 in hamster synovial fluid. The conditions noted are these: Cricetulus griseus.
For data set [7], the species on record is Homo sapiens. The data set can be described thus: Selectivity for MMP13 over MMP2.
Data set [8] in a line: Volume of distribution in rat. In kind it is ADME, organism-based. The conditions noted are these: in vivo, read-out: Vdss.
Data set [9] is filed under the species Homo sapiens. The data set can be described thus: Selectivity for MMP13 over MMP12.
For data set [10], the species on record is Homo sapiens. The data set can be described thus: Selectivity for MMP13 over MMP9.
The target in data set [11] is Collagenase 3 (Rattus norvegicus, UniProt P23097). The data set can be described thus: Inhibition of MMP13 in rat plasma. The format is cell-free.
The species named for data set [12] is Homo sapiens. The data set can be described thus: Selectivity for MMP13 over MMP3.
Data set [13] addresses Matrix metalloproteinase (1 and 13) (Homo sapiens) (UniProt P45452+P03956). In words: Selectivity for MMP13 over MMP1. In kind it is protein assay.
Data set [14] is described as follows: Half life in rat. In kind it is ADME, organism-based. The conditions noted are these: in vivo.
Data set [15] concerns Cartilage tissue. The data set can be described thus: Inhibition of bovine nasal cartilage degradation. In kind it is functional, tissue-based. Particulars: Bos taurus.

Structures are written as SMILES.

Chain of Matrix metalloproteinase (1 and 13) (Homo sapiens) (P03956 whole entry, looked up, other chains not shown): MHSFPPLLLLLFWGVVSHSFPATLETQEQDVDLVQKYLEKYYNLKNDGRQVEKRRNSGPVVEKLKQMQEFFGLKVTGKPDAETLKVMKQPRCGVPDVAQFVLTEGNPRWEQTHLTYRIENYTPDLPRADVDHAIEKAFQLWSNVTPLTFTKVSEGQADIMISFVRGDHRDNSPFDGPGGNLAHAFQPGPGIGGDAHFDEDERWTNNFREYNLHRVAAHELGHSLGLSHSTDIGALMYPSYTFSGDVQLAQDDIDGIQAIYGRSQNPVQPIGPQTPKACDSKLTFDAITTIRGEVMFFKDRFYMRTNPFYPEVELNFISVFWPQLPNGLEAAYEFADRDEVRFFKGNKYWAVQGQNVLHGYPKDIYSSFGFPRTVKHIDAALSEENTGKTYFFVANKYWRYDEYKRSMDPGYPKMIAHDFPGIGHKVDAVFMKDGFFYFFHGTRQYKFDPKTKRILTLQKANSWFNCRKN

Turning to `COCCC1(Oc2ccc(Oc3ccc(-c4nc(-c5ccc(C#N)cc5)co4)cc3)cc2)C(=O)NC(=O)NC1=O`, the Selectivity ratio was 540 in [1]; 394 in [2]; 397 in data set [7]; 619 in data set [9]; 540 in data set [10]; 1700 in data set [12]. Besides, the Selectivity ratio in data set [13] came out at 2400. In addition, in data set [3], the fraction unbound is under 0.01. In addition, the IC50 was 0.84 nM in data set [4], 7200 nM in [11] and 40 nM in data set [15]. The clearance in [5] came to 0.63 mL/min/kg. In data set [6], this compound gave an ED50 of 1 mg/kg. The Vd in data set [8] was 0.34 L/kg. The compound also showed a half-life in [14] of 6.9 h.
Consider `CCOCCC1(Oc2ccc(Oc3ccc(-c4nc(-c5cccc(F)c5)no4)cc3)cc2)C(=O)NC(=O)NC1=O`, for which the Selectivity ratio worked out at 95 in [2], 88 in data set [7] and 56 in data set [9]. Besides, in [4], 7.8 nM corresponded to half-maximal inhibition (IC50).
In the case of `CCOCCC1(Oc2ccc(Oc3ccc(-c4nc(-c5ccc(F)cc5)co4)cc3)cc2)C(=O)NC(=O)NC1=O`, the Selectivity ratio was found to be 243 in [2], 455 in data set [7] and 573 in data set [9]. Also, half-maximal inhibition in data set [4] (IC50) required 0.68 nM.
`COCCC1(Oc2ccc(Oc3ccc(-c4nc(-c5cccc(F)c5)co4)cc3)cc2)C(=O)NC(=O)NC1=O`: the results for the Selectivity ratio in data set [2], in data set [7] and in [9] were 152, 239 and 1310, respectively. In data set [4], this compound had an IC50 of 0.46 nM.
With `CCOCCC1(Oc2ccc(Oc3ccc(C(=O)Nc4ccccc4)cc3)cc2)C(=O)NC(=O)NC1=O`, the Selectivity ratio was found to be 200 in data set [2], 58 in [7] and 50 in [9]. The concentration for half-maximal inhibition (IC50) in data set [4] worked out at 0.84 nM.
With `CCOCCC1(Oc2ccc(Oc3ccc(C(=O)NCc4ccccc4F)cc3)cc2)C(=O)NC(=O)NC1=O`, the Selectivity ratio is 27 in data set [2], 55 in data set [7] and 80 in data set [9]. This compound also came in with an IC50 in data set [4] of 1.1 nM.
Take `COCCC1(Oc2ccc(Oc3ccc(-c4nc(-c5ccccc5C#N)co4)cc3)cc2)C(=O)NC(=O)NC1=O`: the Selectivity ratio is 516 in [2], 173 in data set [7] and 342 in data set [9]. The same compound displayed an IC50 in [4] of 0.73 nM.
In the same order, the values of `CCOCCC1(Oc2ccc(Oc3ccc(-c4nc(-c5ccccc5F)co4)cc3)cc2)C(=O)NC(=O)NC1=O` are 270, 562, 868 and 0.93 nM.
